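Method: 48-hour compound exposure of cells in 96-well plates, five concentrations, linear interpolation of endpoints. Here, GI50 denotes the concentration required for 50% inhibition of growth.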 Activity calls are given as the source filed them. Rule as the data show it: active = GI50 up to about 1.1 µM and inactive = higher.
Experiments:
Assay in all cases: NCI anticancer screen, dose series, 48 h
IGROV-1 = test system: IGROV-1
MDA-MB-435 = test system: MDA-MB-435
ACHN = test system: ACHN
SK-MEL-28 = test system: SK-MEL-28
SF-268 = test system: SF-268
OVCAR-8 = test system: OVCAR-8
TK-10 = test system: TK-10
UO-31 = test system: UO-31
786-0 = test system: 786-0
MDA-MB-231 = test system: MDA-MB-231
MCF7 = test system: MCF7
HCT-15 = test system: HCT-15
NCI/ADR-RES = test system: NCI/ADR-RES
OVCAR-4 = test system: OVCAR-4
NCI-H226 = test system: NCI-H226
OVCAR-3 = test system: OVCAR-3
Malme-3M = test system: Malme-3M
HCC 2998 = test system: HCC 2998
T47D = test system: T47D
Hs-578T = test system: Hs-578T
U-251 = test system: U-251
UACC-62 = test system: UACC-62
CAKI-1 = test system: CAKI-1
SN12C = test system: SN12C
LOX IMVI = test system: LOX IMVI
NCI-H522 = test system: NCI-H522
KM12 = test system: KM12
HT-29 = test system: HT-29
OVCAR-5 = test system: OVCAR-5
BT-549 = test system: BT-549
SF-539 = test system: SF-539
PC-3 = test system: PC-3
CCRF-CEM = test system: CCRF-CEM
HOP-62 = test system: HOP-62
UACC-257 = test system: UACC-257
A498 = test system: A498
NCI-H23 = test system: NCI-H23
SW-620 = test system: SW-620
COLO 205 = test system: COLO 205
M14 = test system: M14
SNB-75 = test system: SNB-75
K562 = test system: K562
HCT-116 = test system: HCT-116
SF-295 = test system: SF-295
SNB-19 = test system: SNB-19
NCI-H460 = test system: NCI-H460
DU-145 = test system: DU-145
SK-MEL-5 = test system: SK-MEL-5
HL-60 = test system: HL-60
RPMI-8226 = test system: RPMI-8226
SR = test system: SR
SK-MEL-2 = test system: SK-MEL-2
EKVX = test system: EKVX
RXF 393 = test system: RXF 393
MDA-N = test system: MDA-N
MOLT-4 = test system: MOLT-4
SK-OV-3 = test system: SK-OV-3
A549 = test system: A549
HOP-92 = test system: HOP-92

For `CCN(/C=C1/C(=O)C(c2ccccc2)N(c2ccccc2)C1=O)CC` (stereo not drawn), the GI50 (IGROV-1) was > 10 µM (inactive), the GI50 (MDA-MB-435) was > 10 µM (inactive) and the GI50 (ACHN) was > 10 µM (inactive). For the same molecule, the GI50 (SK-MEL-28) was > 10 µM (inactive), the GI50 (SF-268) was > 10 µM (inactive) and the GI50 (OVCAR-8) was > 10 µM (inactive). For the same molecule, the GI50 (TK-10) was > 10 µM (inactive), the GI50 (UO-31) was > 10 µM (inactive) and the GI50 (786-0) was > 10 µM (inactive). For the same molecule, the GI50 (MDA-MB-231) was > 10 µM (inactive), the GI50 (MCF7) was > 10 µM (inactive) and the GI50 (HCT-15) was > 10 µM. For the same molecule, the GI50 (NCI/ADR-RES) was > 10 µM (inactive), the GI50 (OVCAR-4) was > 10 µM (inactive) and the GI50 (NCI-H226) was > 10 µM (inactive). For the same molecule, the GI50 (OVCAR-3) was > 10 µM (inactive), the GI50 (Malme-3M) was > 10 µM (inactive) and the GI50 (HCC 2998) was > 10 µM (inactive). The GI50 (T47D) was > 10 µM (inactive), the GI50 (Hs-578T) was > 10 µM (inactive) and the GI50 (U-251) was > 10 µM (inactive). The GI50 (UACC-62) was > 10 µM (inactive), the GI50 (CAKI-1) was > 10 µM (inactive) and the GI50 (SN12C) was > 10 µM (inactive). The GI50 (LOX IMVI) was > 10 µM (inactive), the GI50 (NCI-H522) was > 10 µM (inactive) and the GI50 (KM12) was > 10 µM (inactive). For the same molecule, the GI50 (HT-29) was > 10 µM (inactive), the GI50 (OVCAR-5) was > 10 µM (inactive) and the GI50 (BT-549) was > 10 µM (inactive). The GI50 (SF-539) was > 10 µM (inactive), the GI50 (PC-3) was > 10 µM (inactive) and the GI50 (CCRF-CEM) was > 10 µM (inactive). For the same molecule, the GI50 (HOP-62) was > 10 µM (inactive), the GI50 (UACC-257) was > 10 µM (inactive) and the GI50 (A498) was > 10 µM (inactive). For the same molecule, the GI50 (NCI-H23) was > 10 µM (inactive), the GI50 (SW-620) was > 10 µM (inactive) and the GI50 (COLO 205) was > 10 µM (inactive). For the same molecule, the GI50 (M14) was > 10 µM (inactive), the GI50 (SNB-75) was 6.44 µM (inactive) and the GI50 (K562) was > 10 µM (inactive). The GI50 (HCT-116) was > 10 µM (inactive), the GI50 (SF-295) was > 10 µM (inactive) and the GI50 (SNB-19) was > 10 µM (inactive). For the same molecule, the GI50 (NCI-H460) was > 10 µM (inactive), the GI50 (DU-145) was > 10 µM (inactive) and the GI50 (SK-MEL-5) was > 10 µM (inactive). The GI50 (HL-60) was > 10 µM (inactive), the GI50 (RPMI-8226) was > 10 µM (inactive) and the GI50 (SR) was > 10 µM (inactive). The GI50 (SK-MEL-2) was > 10 µM (inactive), the GI50 (EKVX) was > 10 µM (inactive) and the GI50 (RXF 393) was > 10 µM (inactive). The GI50 (MDA-N) was > 10 µM (inactive), the GI50 (MOLT-4) was > 10 µM (inactive) and the GI50 (SK-OV-3) was > 10 µM (inactive). The GI50 (A549) was > 10 µM (inactive).

`COc1cccc(/C=C2\SC(=S)N(/C=C3\C(=O)Oc4ccccc4C3=O)C2=O)c1O` was tested, and the GI50 (IGROV-1) was 59.2 µM (inactive), the GI50 (MDA-MB-435) was 24.7 µM (inactive) and the GI50 (ACHN) was 46 µM (inactive). The GI50 (SK-MEL-28) was 40.4 µM (inactive), the GI50 (SF-268) was 46.7 µM (inactive) and the GI50 (OVCAR-8) was 80 µM (inactive). The GI50 (UO-31) was 22.3 µM (inactive), the GI50 (786-0) was 67.8 µM (inactive) and the GI50 (MDA-MB-231) was 33.2 µM (inactive). For the same molecule, the GI50 (MCF7) was 39.4 µM (inactive), the GI50 (HCT-15) was 43.2 µM and the GI50 (NCI/ADR-RES) was 41 µM (inactive). For the same molecule, the GI50 (OVCAR-4) was 82.4 µM (inactive), the GI50 (NCI-H226) was > 100 µM (inactive) and the GI50 (OVCAR-3) was 34.4 µM (inactive). The GI50 (Malme-3M) was > 100 µM (inactive), the GI50 (HCC 2998) was 28.8 µM (inactive) and the GI50 (T47D) was 48.6 µM (inactive). For the same molecule, the GI50 (Hs-578T) was 25.5 µM (inactive), the GI50 (U-251) was 31.5 µM (inactive) and the GI50 (UACC-62) was 53 µM (inactive). For the same molecule, the GI50 (CAKI-1) was 81.1 µM (inactive), the GI50 (SN12C) was 56.4 µM (inactive) and the GI50 (LOX IMVI) was 63.2 µM (inactive). The GI50 (NCI-H522) was 33.3 µM (inactive), the GI50 (KM12) was 45.8 µM (inactive) and the GI50 (HT-29) was 78.3 µM (inactive). The GI50 (OVCAR-5) was > 100 µM (inactive), the GI50 (BT-549) was 20 µM (inactive) and the GI50 (SF-539) was 24.9 µM (inactive). The GI50 (PC-3) was 51.8 µM (inactive), the GI50 (CCRF-CEM) was 38.7 µM (inactive) and the GI50 (HOP-62) was 50.7 µM (inactive). The GI50 (UACC-257) was 68.2 µM (inactive), the GI50 (A498) was 11.9 µM (inactive) and the GI50 (NCI-H23) was 45.2 µM (inactive). For the same molecule, the GI50 (SW-620) was 44.1 µM (inactive), the GI50 (COLO 205) was 85.7 µM (inactive) and the GI50 (M14) was 39.4 µM (inactive). The GI50 (SNB-75) was 19.8 µM (inactive), the GI50 (K562) was 34.4 µM (inactive) and the GI50 (HCT-116) was 56.9 µM (inactive). The GI50 (SF-295) was 76.6 µM (inactive), the GI50 (SNB-19) was 41.9 µM (inactive) and the GI50 (NCI-H460) was 48.1 µM (inactive). For the same molecule, the GI50 (DU-145) was 74.5 µM (inactive), the GI50 (SK-MEL-5) was 35.8 µM (inactive) and the GI50 (HL-60) was 41.2 µM (inactive). The GI50 (RPMI-8226) was 18.8 µM (inactive), the GI50 (SR) was 30.6 µM (inactive) and the GI50 (SK-MEL-2) was 45.7 µM (inactive). For the same molecule, the GI50 (EKVX) was > 100 µM (inactive), the GI50 (RXF 393) was 59.4 µM (inactive) and the GI50 (MDA-N) was 32.8 µM (inactive). For the same molecule, the GI50 (MOLT-4) was 39.1 µM (inactive), the GI50 (SK-OV-3) was 49.2 µM (inactive) and the GI50 (A549) was 59.7 µM (inactive).

With `O=C(O)CCNc1ccccc1C(=O)O` the GI50 (IGROV-1) was > 100 µM (inactive), the GI50 (MDA-MB-435) was > 100 µM (inactive) and the GI50 (ACHN) was > 100 µM (inactive). The GI50 (SK-MEL-28) was > 100 µM (inactive), the GI50 (SF-268) was > 100 µM (inactive) and the GI50 (OVCAR-8) was > 100 µM (inactive). The GI50 (TK-10) was > 100 µM (inactive), the GI50 (UO-31) was > 100 µM (inactive) and the GI50 (786-0) was > 100 µM (inactive). For the same molecule, the GI50 (MDA-MB-231) was > 100 µM (inactive), the GI50 (MCF7) was > 100 µM (inactive) and the GI50 (HCT-15) was > 100 µM. The GI50 (NCI/ADR-RES) was > 100 µM (inactive), the GI50 (OVCAR-4) was > 100 µM (inactive) and the GI50 (NCI-H226) was > 100 µM (inactive). The GI50 (OVCAR-3) was > 100 µM (inactive), the GI50 (Malme-3M) was > 100 µM (inactive) and the GI50 (T47D) was > 100 µM (inactive). For the same molecule, the GI50 (Hs-578T) was > 100 µM (inactive), the GI50 (U-251) was > 100 µM (inactive) and the GI50 (UACC-62) was > 100 µM (inactive). The GI50 (CAKI-1) was > 100 µM (inactive), the GI50 (SN12C) was > 100 µM (inactive) and the GI50 (LOX IMVI) was > 100 µM (inactive). The GI50 (NCI-H522) was > 100 µM (inactive), the GI50 (KM12) was > 100 µM (inactive) and the GI50 (HT-29) was > 100 µM (inactive). For the same molecule, the GI50 (OVCAR-5) was > 100 µM (inactive), the GI50 (BT-549) was > 100 µM (inactive) and the GI50 (SF-539) was > 100 µM (inactive). The GI50 (PC-3) was > 100 µM (inactive), the GI50 (CCRF-CEM) was > 100 µM (inactive) and the GI50 (HOP-62) was > 100 µM (inactive). For the same molecule, the GI50 (UACC-257) was > 100 µM (inactive), the GI50 (A498) was > 100 µM (inactive) and the GI50 (NCI-H23) was > 100 µM (inactive). The GI50 (SW-620) was > 100 µM (inactive), the GI50 (COLO 205) was > 100 µM (inactive) and the GI50 (M14) was > 100 µM (inactive). The GI50 (SNB-75) was > 100 µM (inactive), the GI50 (K562) was > 100 µM (inactive) and the GI50 (HCT-116) was > 100 µM (inactive). For the same molecule, the GI50 (SF-295) was > 100 µM (inactive), the GI50 (SNB-19) was > 100 µM (inactive) and the GI50 (NCI-H460) was > 100 µM (inactive). The GI50 (DU-145) was > 100 µM (inactive), the GI50 (SK-MEL-5) was > 100 µM (inactive) and the GI50 (HL-60) was > 100 µM (inactive). The GI50 (RPMI-8226) was > 100 µM (inactive), the GI50 (SR) was > 100 µM (inactive) and the GI50 (SK-MEL-2) was > 100 µM (inactive). For the same molecule, the GI50 (EKVX) was 99.1 µM (inactive), the GI50 (RXF 393) was > 100 µM (inactive) and the GI50 (MDA-N) was > 100 µM (inactive). For the same molecule, the GI50 (MOLT-4) was > 100 µM (inactive), the GI50 (SK-OV-3) was > 100 µM (inactive) and the GI50 (HOP-92) was > 100 µM (inactive). For the same molecule, the GI50 (A549) was > 100 µM (inactive).

— ChEMBL document CHEMBL1201862, “PubChem BioAssay data set” (2004)
